Assay results taken from US20250319107A1, “USE OF CANNABIDIOL AND CLOBAZAM IN THE TREATMENT OF CHILDHOOD-ONSET EPILEPSY SYNDROMES” (GW Research Limited, priority 2021, published 2025).

Legend:
[1] = system: adult patients with generalized epilepsy; conditions: eight adult patients with generalized epilepsy; cited from earlier work
[2] = system: healthy adults and patients with LGS, DS, and TSC; assay: Controlled studies, serum creatinine; format: in vivo, human
From the text: CBD can cause elevations in serum creatinine. The mechanism has not yet been determined. In controlled studies in healthy adults and in patients with LGS, DS, and TSC, an increase in serum creatinine of approximately 10% was observed within 2 weeks of starting CBD-OS. The increase was reversible in healthy adults. Reversibility was not assessed in studies in LGS, DS, or TSC.

[3] = system: institutionalized adult patients; conditions: 200 mg/day of pure CBD; twelve institutionalized adult patients; open label; cited from earlier work
patients with TSC = assay: Phase 3 randomized controlled trial of CBD versus placebo, adverse reactions in TSC patients; format: in vivo, human; conditions: for Alanine aminotransferase increased, adverse reaction incidence / Anaemia, adverse reaction incidence / Aspartate aminotransferase increased, adverse reaction incidence / Decreased appetite, adverse reaction incidence / Diarrhoea, adverse reaction incidence / Eosinophil count increased, adverse reaction incidence / Fatigue, adverse reaction incidence / Gamma glutamyl transferase increased, adverse reaction incidence / Nausea, adverse reaction incidence / Pneumonia (grouped terms), adverse reaction incidence / Pyrexia, adverse reaction incidence / Rash, adverse reaction incidence / Somnolence, adverse reaction incidence / Urinary tract infection, adverse reaction incidence / Vomiting, adverse reaction incidence / Weight decreased, adverse reaction incidence / Subjects with pneumonia, %: TSC; for Alanine aminotransferase increased, adverse reaction incidence / Anaemia, adverse reaction incidence / Aspartate aminotransferase increased, adverse reaction incidence / Decreased appetite, adverse reaction incidence / Diarrhoea, adverse reaction incidence / Eosinophil count increased, adverse reaction incidence / Fatigue, adverse reaction incidence / Gamma glutamyl transferase increased, adverse reaction incidence / Nausea, adverse reaction incidence / Pneumonia (grouped terms), adverse reaction incidence / Pyrexia, adverse reaction incidence / Rash, adverse reaction incidence / Somnolence, adverse reaction incidence / Urinary tract infection, adverse reaction incidence / Vomiting, adverse reaction incidence / Weight decreased, adverse reaction incidence: 12-week treatment
From the text: (§1) Randomized, double-blind, parallel-group, trials of CBD versus placebo were undertaken and the adverse event experienced by the patients were collated and investigated.
(§2) In summary patients completed a 1-week screening period and a 4-week baseline period before they were randomized to receive CBD or equivalent volumes of placebo. Randomization was stratified by age.
(§3) Patients began a 4-week dose escalation period, titrating up to their assigned dose, before continuing on a stable dose of blinded investigational medicinal product (IMP) for 12 or 14 weeks.
(§4) Dose escalation for each patient was subject to the investigator's assessment of safety and tolerability. If a dose became poorly tolerated, the investigator may consider temporarily or permanently reducing the dose for the remainder of the study.
(§5) Clinic visits occurred for screening (Day-35), baseline (Day-28), randomization (Day 1) and, on Days 15 and 29 during titration and on Days 43, 57, 71 (telephone) and 85 until the end of treatment (Day 113). Safety telephone calls were completed every two days during titration, one week after the end of titration and, for patients not entering the open label extension (OLE), weekly from Visit 10 to Visit 12.
(§6) Safety and tolerability measures that were recorded included: adverse events; clinical laboratory parameters; 12-lead electrocardiogram (ECG); physical examination parameters (including height and weight); vital signs; Columbia-Suicide Severity Rating Scale (C-SSRS; 19+ years) or C-SSRS Children's (6-18 years) score, where applicable; number of inpatient hospitalizations due to epilepsy; abuse liability and effects on menstruation cycles (in females).
Table 1.12 below lists the adverse reactions that were reported in TSC patients treated with CBD during the 12-week treatment period in the Phase 3 controlled trial.

patients with LGS or DS = assay: Phase 3 randomized controlled trials of CBD versus placebo, adverse reactions in DS and LGS patients; format: in vivo, human; conditions: 10 mg/kg/day (n = 139); DS and LGS; 14-week treatment
From the text: as §1, §2, §3, §4, §5, §6
Table 1.1 below lists the adverse reactions that were reported in DS and LGS patients treated with CBD during the 14-week treatment period in the Phase 3 controlled trials.

[4] = 50 mg/kg/day group (N = 73; one-third did not reach 50 mg/kg/day)

**Q.** What does the source list for `C=C(C)[C@@H]1CCC(C)=C[C@H]1c1c(O)cc(CCCCC)cc1O` [CBD, cannabidiol]?
**A.** Number of patients with a marked reduction of seizures [1]: 4; Reversibility of the serum creatinine increase ([2]; healthy adults): reversible; Increase in serum creatinine ([2]; within 2 weeks of starting CBD-OS, healthy adults and patients with LGS, DS, and TSC): approximately 10%; Control of seizures [3]: ineffective; Alanine aminotransferase increased, adverse reaction incidence (patients with TSC; 25 mg/kg/day (N = 75)): 12%; Anaemia, adverse reaction incidence (patients with TSC; 25 mg/kg/day (N = 75)): 7%; Aspartate aminotransferase increased, adverse reaction incidence (patients with TSC; 25 mg/kg/day (N = 75)): 11%; Decreased appetite, adverse reaction incidence (patients with TSC; 25 mg/kg/day (N = 75)): 20%; Diarrhoea, adverse reaction incidence (patients with TSC; 25 mg/kg/day (N = 75)): 31%; Eosinophil count increased, adverse reaction incidence (patients with TSC; 25 mg/kg/day (N = 75)): 5%; Fatigue, adverse reaction incidence (patients with TSC; 25 mg/kg/day (N = 75)): 5%; Gamma glutamyl transferase increased, adverse reaction incidence (patients with TSC; 25 mg/kg/day (N = 75)): 16%; Nausea, adverse reaction incidence (patients with TSC; 25 mg/kg/day (N = 75)): 9%; Pneumonia (grouped terms), adverse reaction incidence (patients with TSC; 25 mg/kg/day (N = 75)): 4%; Pyrexia, adverse reaction incidence (patients with TSC; 25 mg/kg/day (N = 75)): 19%; Rash, adverse reaction incidence (patients with TSC; 25 mg/kg/day (N = 75)): 7%; Somnolence, adverse reaction incidence (patients with TSC; 25 mg/kg/day (N = 75)): 13%; Urinary tract infection, adverse reaction incidence (patients with TSC; 25 mg/kg/day (N = 75)): 5%; Vomiting, adverse reaction incidence (patients with TSC; 25 mg/kg/day (N = 75)): 17%; Weight decreased, adverse reaction incidence (patients with TSC; 25 mg/kg/day (N = 75)): 7%; Patients who developed a new laboratory-defined anaemia during the study (patients with TSC; 25 mg/kg/day, patients with TSC, normal haemoglobin at baseline, later below lower limit of normal): 38%; Alanine aminotransferase increased, adverse reaction incidence (patients with TSC; [4]): 22%; Anaemia, adverse reaction incidence (patients with TSC; [4]): 4%; Aspartate aminotransferase increased, adverse reaction incidence (patients with TSC; [4]): 19%; Decreased appetite, adverse reaction incidence (patients with TSC; [4]): 23%; Diarrhoea, adverse reaction incidence (patients with TSC; [4]): 56%; Eosinophil count increased, adverse reaction incidence (patients with TSC; [4]): 1%; Fatigue, adverse reaction incidence (patients with TSC; [4]): 6%; Gamma glutamyl transferase increased, adverse reaction incidence (patients with TSC; [4]): 14%; Nausea, adverse reaction incidence (patients with TSC; [4]): 3%; Pneumonia (grouped terms), adverse reaction incidence (patients with TSC; [4]): 3%; Pyrexia, adverse reaction incidence (patients with TSC; [4]): 16%; Rash, adverse reaction incidence (patients with TSC; [4]): 12%; Somnolence, adverse reaction incidence (patients with TSC; [4]): 26%; Urinary tract infection, adverse reaction incidence (patients with TSC; [4]): 1%; Vomiting, adverse reaction incidence (patients with TSC; [4]): 18%; Weight decreased, adverse reaction incidence (patients with TSC; [4]): 8%; Subjects with pneumonia, % (patients with TSC; With CLB, 25 mg/kg/day, N1 = 18): 16.7%; Subjects with pneumonia, % (patients with TSC; With CLB, 50 mg/kg/day, N1 = 20): 5.0%; Subjects with pneumonia, % (patients with TSC; Without CLB, 50 mg/kg/day, N2 = 53): 1.9%; Discontinuation for transaminase elevation (patients with TSC; controlled trial in TSC): dose responsive; Pneumonia incidence (patients with TSC; with concomitant clobazam, 25 mg/kg/day, patients with TSC): 17%; Pneumonia incidence (patients with TSC; without clobazam, 25 mg/kg/day, patients with TSC): 0%; Abnormal behavior, adverse reaction incidence (patients with LGS or DS): 0%; Aggression, adverse reaction incidence (patients with LGS or DS): 2%; Agitation, adverse reaction incidence (patients with LGS or DS): 0%; Alanine aminotransferase increased, adverse reaction incidence (patients with LGS or DS): 4%; Aspartate aminotransferase increased, adverse reaction incidence (patients with LGS or DS): 4%; Decreased appetite, adverse reaction incidence (patients with LGS or DS): 17%; Diarrhea, adverse reaction incidence (patients with LGS or DS): 13%; Drooling, adverse reaction incidence (patients with LGS or DS): 0%; Fatigue, adverse reaction incidence (patients with LGS or DS): 7%; Gamma-glutamyl transferase increased, adverse reaction incidence (patients with LGS or DS): 4%; Insomnia, adverse reaction incidence (patients with LGS or DS): 4%; Irritability, adverse reaction incidence (patients with LGS or DS): 7%; Lethargy, adverse reaction incidence (patients with LGS or DS): 3%; Liver function test increased, adverse reaction incidence (patients with LGS or DS): 0%
